The results in this text go back to ChEMBL document CHEMBL1130484, “Tricyclic -lactams: Total synthesis and antibacterial activity of 5-methoxyethyl and 5-hydroxyethyl trinems” (1997).

Common to all, as to format: functional
For one experiment, the system named is Clostridium perfringens. Kind of experiment: In vitro antibacterial activity of compound against Clostridium perfringens 615E was determined.
Experiment [1] deals with Escherichia coli. The experiment in a line: In vitro antibacterial activity of compound against Escherichia coli 1852E PM was determined.
The subject of experiment [2] is Pseudomonas aeruginosa. Kind of experiment: In vitro antibacterial activity of compound against Pseudomonas aeruginosa 2033E PER.
The next experiment has as its system Enterobacter cloacae. The experiment in a line: In vitro antibacterial activity of compound against Enterobacter cloacae 3647 was determined.
In experiment [3] the test system is Pseudomonas aeruginosa. The experiment in a line: In vitro antibacterial activity of compound against Pseudomonas aeruginosa 2032E WT was determined.
The test system of experiment [4] is Escherichia coli. Kind of experiment: In vitro antibacterial activity of compound against Escherichia coli 1919E PM/TEM-1 was determined.
In another experiment the test system is Proteus mirabilis. Kind of experiment: In vitro antibacterial activity of compound against Proteus mirabilis 3558 was determined.
The test system of another experiment is Streptococcus pneumoniae. The experiment in a line: In vitro antibacterial activity of compound against Streptococcus pneumoniae 3512 was determined.
The test system of the next experiment is Klebsiella pneumoniae. The experiment in a line: In vitro antibacterial activity of compound against Klebsiella pneumoniae 3226 was determined.
For experiment [5], the system named is Escherichia coli. The experiment in a line: In vitro antibacterial activity of compound against Escherichia coli 851E was determined.
A further experiment deals with Enterococcus faecalis. The experiment in a line: In vitro antibacterial activity of compound against Enterococcus faecalis 850.
Another experiment concerns Haemophilus influenzae. The experiment in a line: In vitro antibacterial activity of compound against Haemophilus influenzae ATCC 49247 was determined.
For experiment [6], the system named is Escherichia coli. The experiment in a line: In vitro antibacterial activity of compound against Escherichia coli 1850E WT was determined.
The test system of experiment [7] is Staphylococcus aureus. The experiment in a line: In vitro antibacterial activity of compound against Staphylococcus aureus 663 PEN-S.
The test system of experiment [8] is Staphylococcus aureus. The experiment in a line: In vitro antibacterial activity of compound against Staphylococcus aureus 11311 MET-R.
In experiment [9] the test system is Pseudomonas aeruginosa. Kind of experiment: In vitro antibacterial activity of compound against Pseudomonas aeruginosa 1911E was determined.
The test system of the next experiment is Bacteroides fragilis. Kind of experiment: In vitro antibacterial activity of compound against Bacteroides fragilis 2017E was determined.
Experiment [10] relates to Staphylococcus aureus. The experiment in a line: In vitro antibacterial activity of compound against Staphylococcus aureus 853E PEN-R.

≈ marks a conversion by molar mass, not a printed value.

Regarding `C[C@@H](O)[C@H]1C(=O)N2C(C(=O)O)=C(SCCNC=N)C[C@H]12` [IMIPENEM ANHYDROUS], the MIC against Clostridium perfringens amounted to 0.2 µg/mL (≈ 0.668 µM); with Escherichia coli [1], 0.5 µg/mL (≈ 1.67 µM); against Pseudomonas aeruginosa [2], 0.2 µg/mL (≈ 0.668 µM); against Enterobacter cloacae, 2 µg/mL (≈ 6.68 µM); with Pseudomonas aeruginosa [3] it was 4 µg/mL (≈ 13.4 µM); against Escherichia coli [4], 0.5 µg/mL (≈ 1.67 µM). Also, the MIC is 8 µg/mL (≈ 26.7 µM) in the experiment on Proteus mirabilis; < 0.01 µg/mL in the experiment with Streptococcus pneumoniae; 0.5 µg/mL (≈ 1.67 µM) in the experiment with Klebsiella pneumoniae; 0.5 µg/mL (≈ 1.67 µM) against Escherichia coli [5]; 4 µg/mL (≈ 13.4 µM) in the experiment on Enterococcus faecalis; 1 µg/mL (≈ 3.34 µM) against Haemophilus influenzae. The MIC with Escherichia coli [6] was 0.5 µg/mL (≈ 1.67 µM); with Staphylococcus aureus [7], 0.06 µg/mL (≈ 0.2 µM); against Staphylococcus aureus [8] it was > 32 µg/mL; against Pseudomonas aeruginosa [9], 4 µg/mL (≈ 13.4 µM); against Bacteroides fragilis, 0.2 µg/mL (≈ 0.668 µM); against Staphylococcus aureus [10], 0.06 µg/mL (≈ 0.2 µM).
As for `CO[C@H]1CCC[C@H]2C1=C(C(=O)[O-])N1C(=O)[C@H]([C@@H](C)O)[C@@H]21.[Na+]` [SANFETRINEM SODIUM], the MIC against Clostridium perfringens was 0.03 µg/mL; against Escherichia coli [4], 0.5 µg/mL; in the experiment on Streptococcus pneumoniae, 0.01 µg/mL; against Enterococcus faecalis, 1 µg/mL; with Escherichia coli [6] it was 0.5 µg/mL; in the experiment on Pseudomonas aeruginosa [9], > 32 µg/mL. The MIC in the experiment on Bacteroides fragilis stood at 0.06 µg/mL; against Staphylococcus aureus [10] it was 0.2 µg/mL.
In the case of `C[C@@H](O)[C@H]1C(=O)N2C(C(=O)O)=C3C[C@@H](CCO)CC[C@@H]3[C@H]12`, the MIC in the experiment with Clostridium perfringens is 4 µg/mL (≈ 13.5 µM); with Escherichia coli [1], 2 µg/mL (≈ 6.77 µM); in the experiment with Pseudomonas aeruginosa [2] it was 4 µg/mL (≈ 13.5 µM); against Enterobacter cloacae, 4 µg/mL (≈ 13.5 µM); with Pseudomonas aeruginosa [3], > 32 µg/mL; against Escherichia coli [4], 2 µg/mL (≈ 6.77 µM). Further, the MIC stood at 8 µg/mL (≈ 27.1 µM) in the experiment with Proteus mirabilis; 0.25 µg/mL (≈ 0.846 µM) in the experiment on Streptococcus pneumoniae; 2 µg/mL (≈ 6.77 µM) in the experiment on Klebsiella pneumoniae; 1 µg/mL (≈ 3.39 µM) against Escherichia coli [5]; 4 µg/mL (≈ 13.5 µM) with Enterococcus faecalis; 1 µg/mL (≈ 3.39 µM) against Haemophilus influenzae. In addition, the MIC is 2 µg/mL (≈ 6.77 µM) with Escherichia coli [6]; 0.25 µg/mL (≈ 0.846 µM) in the experiment with Staphylococcus aureus [7]; > 32 µg/mL in the experiment with Staphylococcus aureus [8]; > 32 µg/mL in the experiment on Pseudomonas aeruginosa [9]; 16 µg/mL (≈ 54.2 µM) with Bacteroides fragilis; 0.5 µg/mL (≈ 1.69 µM) against Staphylococcus aureus [10].
Consider `CO[C@H]1CC[C@H]2C(=C(C(=O)O)N3C(=O)[C@H]([C@@H](C)O)[C@@H]23)C1`, for which the MIC is 2 µg/mL (≈ 7.11 µM) with Clostridium perfringens; 1 µg/mL (≈ 3.55 µM) in the experiment on Escherichia coli [1]; 16 µg/mL (≈ 56.9 µM) with Pseudomonas aeruginosa [2]; 32 µg/mL (≈ 114 µM) against Enterobacter cloacae; > 32 µg/mL in the experiment on Pseudomonas aeruginosa [3]; 2 µg/mL (≈ 7.11 µM) in the experiment with Escherichia coli [4]. Besides, the MIC was determined as 8 µg/mL (≈ 28.4 µM) with Proteus mirabilis; 0.12 µg/mL (≈ 0.427 µM) against Streptococcus pneumoniae; 4 µg/mL (≈ 14.2 µM) against Klebsiella pneumoniae; 8 µg/mL (≈ 28.4 µM) in the experiment with Escherichia coli [5]; 8 µg/mL (≈ 28.4 µM) in the experiment with Enterococcus faecalis; 4 µg/mL (≈ 14.2 µM) against Haemophilus influenzae. Also, the MIC with Escherichia coli [6] was 8 µg/mL (≈ 28.4 µM); against Staphylococcus aureus [7] it was 0.5 µg/mL (≈ 1.78 µM); against Staphylococcus aureus [8], > 32 µg/mL; against Pseudomonas aeruginosa [9] it was > 32 µg/mL; against Bacteroides fragilis it was 16 µg/mL (≈ 56.9 µM); in the experiment on Staphylococcus aureus [10] it was 1 µg/mL (≈ 3.55 µM).
Turning to `COCC[C@H]1CC[C@H]2C(=C(C(=O)O)N3C(=O)[C@H]([C@@H](C)O)[C@@H]23)C1`, the MIC against Clostridium perfringens is 2 µg/mL (≈ 6.46 µM); with Escherichia coli [1], 1 µg/mL (≈ 3.23 µM); with Pseudomonas aeruginosa [2] it was 16 µg/mL (≈ 51.7 µM); against Enterobacter cloacae, 32 µg/mL (≈ 103 µM); in the experiment on Pseudomonas aeruginosa [3], > 32 µg/mL; with Escherichia coli [4], 2 µg/mL (≈ 6.46 µM). The MIC came to 8 µg/mL (≈ 25.9 µM) in the experiment with Proteus mirabilis; 0.12 µg/mL (≈ 0.388 µM) against Streptococcus pneumoniae; 4 µg/mL (≈ 12.9 µM) in the experiment with Klebsiella pneumoniae; 8 µg/mL (≈ 25.9 µM) against Escherichia coli [5]; 8 µg/mL (≈ 25.9 µM) against Enterococcus faecalis; 4 µg/mL (≈ 12.9 µM) in the experiment with Haemophilus influenzae. For the same compound, the MIC against Escherichia coli [6] is 8 µg/mL (≈ 25.9 µM); against Staphylococcus aureus [7], 0.5 µg/mL (≈ 1.62 µM); against Staphylococcus aureus [8], > 32 µg/mL; in the experiment with Pseudomonas aeruginosa [9], > 32 µg/mL; in the experiment with Bacteroides fragilis it was 16 µg/mL (≈ 51.7 µM); with Staphylococcus aureus [10] it was 1 µg/mL (≈ 3.23 µM).
